Columns and labels:
[1] = system: splenic lymphocytes of EAC bearing mice; test: Splenic lymphocyte count in EAC bearing mice; format: in vivo, Swiss female albino mice; conditions: 100 mg/kg SC for 5 days
Experimental: This reduction is reconfirming the reported fact that tumor causes massive depletion in immune cell numbers. Table 7 shown the reduced splenic lymphocyte results were a reaffirmation that cancer disabled normal lymphocyte development. The effective dose of indoloquinoline analogs, given throughout this study; 100 mg/kg for 5 constitutive days subcutaneously, reported an increase in the spleen cell number providing evidence that they protect the lymphoid organ of mice with tumor as illustrated in (Table 7).
(§1) Under sterile conditions, the spleens were eliminated, and the single cell suspension was made in RPMI 1640 medium. Splenic lymphocytes were purified as described earlier. Viable splenic lymphocytes were counted in a hemocytometer by trypan blue exclusion test and used for further analysis.
(§2) During the study, female Swiss albino mice (normal, treated, and untreated) were anesthetized. Under sterile conditions, after scattering 70% alcohol on the abdominal region, the spleen was removed and then injected with a minor amount of PBS. Spleen was pressed across the fine mesh of the tissue grinder. After centrifuging the produced cell suspension at 1000 rpm for 5 min, the supernatant was discarded, and the cells were washed at room temperature by centrifugation in PBS twice. Trypan blue extrusion method was used to evaluate cell viability, and a phase-contrast microscope was used for cell counting. The experiment was done in tripartite.

[2] = system: splenic lymphocytes of normal mice; test: Splenic lymphocyte count in normal mice; format: in vivo, Swiss female albino mice; conditions: 100 mg/kg SC for 5 days
Experimental: The difference in the number of splenic lymphocytes between the study groups, including groups given indoloquinoline derivatives, control group, and groups with a tumor, were evaluated. Normal mice administered indoloquinoline derivatives at a dose of 100 mg/kg for 5 constitutive days subcutaneously reported statistical similarities with the untreated normal mice group regarding the count of splenic lymphocytes (Table 6).
as §1, §2

[3] = system: solid-tumor (EAC) bearing mice (liver homogenate); test: Lipid peroxidation and antioxidant enzymes in liver homogenate of solid-tumor bearing mice; format: in vivo, Swiss female albino mice; conditions: 100 mg/kg for 5 days; for CAT / Lipid Peroxidation / SOD: liver
Experimental: Measuring antioxidant enzyme levels and lipid peroxidation was utilized to evaluate the pharmacological effect of indoloquinoline derivatives. The study group was divided into two subgroups, normal mice and tumor-bearing mice. Each subgroup is further subdivided into two groups, one group received indoloquinoline derivatives, and the other group was marked as a placebo group.
After administration of indoloquinoline analogs 6a, 6b, 6c and 6d at a dose of 100 mg/kg for 5 constitutive days to mice with EAC, the levels of lipid peroxidation were highly significant less than that of the positive control group (p < 0.001). Meanwhile, the level of SOD in the liver homogenate of positive bearing mice was 32.1% (p < 0.001) less than that of the normal group (Table 5).
The eradicated liver was double washed first, with ice-cold normal saline then, with cold 0.15 mol/L Tris-HCl buffer (pH 7.4). The clean organ was dried and weighed, and used to prepare a 10% w/v homogenate in 0.15 mol/L Tris-HCl buffer. A portion of the prepared homogenate was centrifuged at 1500 rpm for 15 min at 4 °C [47] and used for estimating lipid peroxidation, SOD [48] and CAT [49] analysis was carried out using the supernatant.

liver = test: Histopathological examination of liver sections (H and E); format: in vivo; conditions: for liver degenerative changes (histopathology): mice treated with compound, Figure 5
Text: It is well known that the vital organ enables the human body to get rid of toxins, as organic xenobiotics in the liver. Tissue changes in the liver are linked with histological abnormalities. Possible unwanted effects of the Indoloquinolines were checked in the mice group that received the compound; 5 days after subcutaneous injection of the compounds, tumors and livers were fixed in 10% neutral buffered formalin solution and embedded in paraffin. Sections, […], were stained using hematoxylin and eosin (H and E).
Each tumor or liver sample for each mouse was separated and kept in 10% formalin solution and dehydrated in a graded alcohol series. Each specimen was treated with xylene and then inserted in paraffin blocks. The specimen was cut into sections, the thickness of each section is five-micron, hematoxylin, and eosin (H and E) were added for staining. The stained liver specimen was used to assess the degree of degradation and necrosis using a reported scaling system; the scaling system use numbers from 0 to 3 to reflect necrosis severity. Starting from 0, which indicates no necrosis and moves to mild, moderate, and severe necrosis indicated by 1, 2, and 3, respectively. Mild and moderate stages are defined as focal and multifocal necrosis or degradation of hepatocytes, respectively, while severe is characterized by local immense, spread out necrosis or damaged liver cells. Tumor specimen stained with H and E were used to evaluate the severity and percentage of necrosis by the same previously mentioned scaling system.

Swiss albino mice = test: Acute / short-term toxicity study, single subcutaneous dose; format: in vivo; conditions: for No. of Death: 7 mice; for No. of Death / % Mortality: observed 24 h
Experimental: To confirm the safety of indoloquinoline compounds, acute and short-term toxicity studies were done. Forty-two Swiss albino mice were divided into six groups of seven mice each. The first five groups were subcutaneously injected in single graded doses. The first five groups were given a single dose of graded doses (400, 800, 1200, 1600, and 2000 mg/kg body weight) of indoloquinoline analog containing 11-substituted N-methyl piperazinyl side-chain 6d by the subcutaneous route, while the last group received 0.2 mL of (water: DMSO, 7:3) by the same route. The animals were then observed for 24 h for toxicity signs and death. The LD50 of 6d was calculated using the arithmetic methods of Karber as modified by Aliu and Nwude. The mortality rates and calculated LD50 are presented in (Table 3).

[4] = 5 days after subcutaneous injection, H and E

| Compound | Splenic Lymphocyte Number [1] | increase in lymphocytic count [1] [%] | Splenic Lymphocyte Number [2] | increase of CAT level against positive control [3] [%] | increase of SOD level in relation to positive control group [3] [%] | CAT [3] [KU/mg Tissue/s] | Lipid Peroxidation [3] [nmol MDA/g Tissue] | SOD [3] [U/g Tissue] | necrosis of liver cells (liver; [4]) | liver degenerative changes (histopathology) (liver; H and E) | necrosis of liver cells (liver; mouse, in vivo, sc) | further results |
| --- | --- | --- | --- | --- | --- | --- | --- | --- | --- | --- | --- | --- |
| Cn1c2nc3ccccc3c-2c(Nc2ccc(Br)cc2F)c2ccccc21 [Compound 6a, N-(4-Bromo-2-fluorophenyl)-5-methyl-5H-indolo[2,3-b] Quinolin-11-amine] | 20.0 ± 0.73 * 10^6/mL | 440.5 | 13.3 ± 1.08 10^6/mL | 51.2 | 54.4 | 6.2 ± 0.14 | 249.3 ± 2.1 | 146.75 ± 2.11 | did not cause necrosis to liver cells | mild degenerative changes | – | – |
| 5-Methyl-N-(4-methylpiperazin-1-yl)-5H-indolo[2,3-b] Quinolin-11-amine [Compound 6d] | 17.0 ± 0.61 * 10^6/mL | 359.5 | 12.8 ± 0.04 10^6/mL | 65.8 | 39.8 | 6.8 ± 0.12 | 249.9 ± 2.2 | 132.86 ± 0.55 | – | – | did not cause necrosis to liver cells | No. of Death (Swiss albino mice; 400 mg/kg SC single dose): 0; % Mortality (Swiss albino mice; 400 mg/kg SC single dose): 0%; No. of Death (Swiss albino mice; 800 mg/kg SC single dose): 2; % Mortality (Swiss albino mice; 800 mg/kg SC single dose): 28.5%; No. of Death (Swiss albino mice; 1200 mg/kg SC single dose): 4; % Mortality (Swiss albino mice; 1200 mg/kg SC single dose): 57.1%; No. of Death (Swiss albino mice; 1600 mg/kg SC single dose): 6; % Mortality (Swiss albino mice; 1600 mg/kg SC single dose): 85.7%; No. of Death (Swiss albino mice; 2000 mg/kg SC single dose): 7; % Mortality (Swiss albino mice; 2000 mg/kg SC single dose): 100%; LD50 (Swiss albino mice; subcutaneous, mice, arithmetic method of Karber): 1000 mg/kg |
| 5(5-Methyl-5H-indolo[2,3-b] quinolin-11-ylamino) Pyrimidine-2,4(1H,3H)-dione [Compound 6c] | 17.0 ± 0.58 * 10^6/mL | 359.5 | 13.29 ± 1.12 10^6/mL | 107.3 | 36.24 | 8.5 ± 0.34 | 262.1 ± 1.9 | 129.47 ± 1.38 | – | – | did not cause necrosis to liver cells | – |
| Cn1c2nc3ccccc3c-2c(NCCc2c[nH]c3ccccc23)c2ccccc21 [Compound 6b, N-(2-(1H-Indol-3-yl)ethyl)-5-methyl-5H-indolo[2,3-b] Quinolin-11-amine] | 14.8 ± 1.22 * 10^6/mL | 300 | 12.97 ± 0.65 10^6/mL | 78.04 | 53.69 | 7.3 ± 0.16 | 268.9 ± 2.8 | 146.06 ± 3.11 | did not cause necrosis to liver cells | mild diffuse degenerative changes, mild congestion, and scattered lymphocytes | – | – |
